Experimental data from US12497411B2, “Muscarinic acetylcholine receptor subtype 4 antagonists in the treatment of anemia” (COLD SPRING HARBOR LABORATORY, priority 2019, dated 2025).

Columns and labels:
[1] = target: T1, human recombinant CHRM3 receptor (Homo sapiens, UniProt P20309); assay: Radioligand binding assay, CHRM3; conditions: [3H]4-DAMP (0.2 nM), CHO cell membranes, 60 minutes at room temperature; read-out: Ki M3
T1 construct: expressed in transfected cells; host or cells: CHO cells (membranes)
T1 sequence (P20309 whole entry): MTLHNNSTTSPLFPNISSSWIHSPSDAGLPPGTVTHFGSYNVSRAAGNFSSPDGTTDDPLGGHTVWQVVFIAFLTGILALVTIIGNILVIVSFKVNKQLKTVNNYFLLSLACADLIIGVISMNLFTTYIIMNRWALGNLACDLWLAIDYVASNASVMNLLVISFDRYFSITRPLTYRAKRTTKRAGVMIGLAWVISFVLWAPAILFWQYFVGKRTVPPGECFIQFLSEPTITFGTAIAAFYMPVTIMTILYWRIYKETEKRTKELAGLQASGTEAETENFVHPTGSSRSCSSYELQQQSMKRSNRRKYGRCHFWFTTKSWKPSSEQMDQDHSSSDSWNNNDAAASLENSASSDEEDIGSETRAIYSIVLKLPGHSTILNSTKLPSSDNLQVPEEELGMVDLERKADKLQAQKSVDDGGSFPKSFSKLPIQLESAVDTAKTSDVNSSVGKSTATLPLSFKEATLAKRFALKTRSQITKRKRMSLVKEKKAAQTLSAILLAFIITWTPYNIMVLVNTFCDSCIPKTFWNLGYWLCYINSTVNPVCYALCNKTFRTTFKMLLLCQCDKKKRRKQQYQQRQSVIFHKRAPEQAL
Procedure: PD102807 and Compounds A-K at concentrations of 1×10^−9 M, 1×10^−8 M, 1×10^−7 M, 1×10^−6 M, and 1×10^−5 M were tested in standard binding assays with radioligands and cell membranes with receptors. Compound binding was calculated as a percent inhibition of the binding of a radioactively labeled ligand specific for each target, and the Ki values were determined. For CHRM1, the binding assay was performed using [^3H]pirenzepine (2 nM) as a radioligand and membranes of CHO cells with human recombinant CHRM1 receptor. The incubation time was 60 minutes at room temperature. For CHRM2, the binding assay was performed using [^3H]AF-DX 384 (2 nM) as a radioligand and membranes of CHO cells with human recombinant CHRM2 receptor. The incubation time was also 60 minutes at room temperature. For CHRM3, the binding assay was performed using [^3H]4-DAMP (0.2 nM) as a radioligand and membranes of CHO cells with human recombinant CHRM3 receptor. The incubation time was also 60 minutes at room temperature. For CHRM4, the binding assay was performed using [^3H]4-DAMP (0.2 nM) as a radioligand and membranes of CHO cells with human recombinant CHRM4 receptor. The incubation time was also 60 minutes at room temperature. For CHRM5, the binding assay was performed using [^3H]4-DAMP (0.3 nM) as a radioligand and membranes of CHO cells with human recombinant CHRM5 receptor. The incubation time was also 60 minutes at room temperature.

[2] = target: T2, human recombinant CHRM2 receptor (Homo sapiens, UniProt P08172); assay: Radioligand binding assay, CHRM2; conditions: [3H]AF-DX 384 (2 nM), CHO cell membranes, 60 minutes at room temperature; read-out: Ki M2
T2 construct: expressed in transfected cells; host or cells: CHO cells (membranes)
T2 sequence (P08172 1-466): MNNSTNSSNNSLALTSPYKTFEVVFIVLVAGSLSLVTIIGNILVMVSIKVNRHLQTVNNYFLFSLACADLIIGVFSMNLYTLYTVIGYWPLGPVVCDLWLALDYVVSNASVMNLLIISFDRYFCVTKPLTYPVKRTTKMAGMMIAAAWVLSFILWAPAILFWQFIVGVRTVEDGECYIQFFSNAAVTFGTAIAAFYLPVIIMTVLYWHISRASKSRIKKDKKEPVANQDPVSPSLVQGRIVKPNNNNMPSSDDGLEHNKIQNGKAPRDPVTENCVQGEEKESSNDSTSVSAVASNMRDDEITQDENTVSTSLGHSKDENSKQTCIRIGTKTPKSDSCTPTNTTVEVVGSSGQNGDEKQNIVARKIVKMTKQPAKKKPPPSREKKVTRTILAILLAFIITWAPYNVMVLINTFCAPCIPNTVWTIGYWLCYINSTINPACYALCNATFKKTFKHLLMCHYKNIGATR
Outline: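 Membranes from CHO cells expressing each human recombinant receptor; radioligands [^3H]pirenzepine (2 nM) for CHRM1, [^3H]AF-DX 384 (2 nM) for CHRM2, [^3H]4-DAMP at 0.2 nM for CHRM3 and 0.3 nM for CHRM5. Compounds at 1×10^−9 to 1×10^−5 M; 60 min, room temperature. Percent inhibition of radioligand binding; Ki determined.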

[3] = test system: Mouse BFU-Es; assay: Primary mouse BFU-E culture assay (cell expansion); type: cell-based
Procedure: Primary mouse BFU-Es were isolated from mouse embryonic day 14.5 (E14.5) fetal liver and cultured in StemSpan serum-free expansion medium, and the numbers of cells formed were counted during culture. BFU-Es were infected with either viruses encoding control shRNA or viruses encoding shRNAs targeting Chrm4, and numbers of GFP+ cells formed during culture were counted. DMSO or 25 mg/kg oxyphenonium bromide was intraperitoneally injected into the hemolysis mouse model, Mx1-cre Srsf2 P95H/WT MDS mouse model, and aging mouse model. Complete blood count (CBC) was performed after compound injection. CREB ChIP-Seq was performed on BFU-Es after culture with 100 μM oxyphenonium bromide for 45 minutes. RNA-Seq was performed in BFU-Es after being cultured with DMSO or oxyphenonium bromide for 3 days.
BFU-Es were isolated from mouse embryonic day 14.5 fetal liver using fluorescence-activated cell sorting (FACS) method previously described (Flygare et al., Blood 117, 3435-3444 (2011)). BFU-Es were cultured in StemSpan SFEM II medium containing rmSCF (100 ng/ml), EPO (2 U/ml), rmIGF-1 (40 ng/ml), dexamethasone (1 nmol/ml or 10 nmol/ml), oxyphenonium bromide ([…]), and orphenadrine citrate (1 μmol/ml).
BFU-Es were isolated from mouse embryonic day 14.5 fetal liver using fluorescence-activated cell sorting (FACS) method. BFU-Es were cultured in StemSpan SFEM II medium containing rmSCF (100 ng/ml), EPO (2 U/ml), rmIGF-1 (40 ng/ml), dexamethasone (1 nM), together with either DMSO, PCS1055 (5 nM), or PD102807 (3 nM). Numbers of cell formed were counted during in vitro culture.
FIGS. 7 and 8 show the results of the primary BFU-E culture assay. […] Highly purified BFU-Es were isolated as lin-Ter-119-CD16/CD32-Sca-1-CD41-c-Kit+CD71/Cd24a^10% low population using the fluorescence-activated cell sorting (FACS) method. BFU-Es were cultured in medium containing rmSCF, EPO, and rmIGF-1, in the presence of PD102807 or Compounds A-K at indicated concentrations.

[4] = test system: PHZ induced hemolytic anemia in C57bl/6 mice; assay: PHZ induced hemolytic anemia mouse model, CBC; type: in vivo; conditions: 100 mg/kg oral once per day, CBC on day 6, vs DMSO control
Procedure: Animal experiments were conducted in the Cold Spring Harbor Laboratory Animal Shared Resource in accordance with Institutional Animal Care and Use Committee-approved procedures. 4-6 weeks old C57bl/6 mice, purchased from Jackson Laboratory and randomly distributed into compound and control treatment groups, were given through oral delivery of PCS1055 (50 mg/kg or 100 mg/kg) twice per day or PD102807 (50 mg/kg or 100 mg/kg) once per day everyday for 3 days. On day 3, mice were intraperitoneally injected with 60 mg/kg PHZ. Mice were then given through oral delivery of PD102807 (50 mg/kg or 100 mg/kg) once per day every day for 2 days. Peripheral blood samples were collected retro-orbitally on day 6 using heparinized capillary tubes in blood collection tubes with K2-EDTA. CBC was performed using Hemavet 950. […] C57bl/6 mice were injected with 60 mg/kg phenylhydrazine to induce hemolysis. Mice were delivered with either vehicle control or Compound A or B (30 mg/kg or 100 mg/kg). Peripheral blood samples were collected retro-orbitally using heparinized capillary tubes into blood collection tubes with K2-EDTA. Complete blood counting was performed using Hemavet 950. Hematocrit (HCT), red blood cell (RBC) and hemoglobin (Hb) values are shown. […] C57bl/6 mice were injected with 60 mg/kg phenylhydrazine to induce hemolysis. Mice were delivered with subcutaneous injection with either vehicle control or Compound B (1.5 mg/kg, 3 mg/kg, or 5 mg/kg) or I (0.5 mg/kg, 0.7 mg/kg, or 1 mg/kg). Peripheral blood samples were collected retro-orbitally using heparinized capillary tubes into blood collection tubes with K2-EDTA. Complete blood counting was performed using Hemavet 950. Hematocrit (HCT), red blood cell (RBC) and hemoglobin (Hb) values are shown.

[5] = target: T3, CHRM4 (Homo sapiens, UniProt P08173); conditions: previous reports (Croy 2016; Böhme 2002); cited from earlier work
T3 sequence (P08173 1-479): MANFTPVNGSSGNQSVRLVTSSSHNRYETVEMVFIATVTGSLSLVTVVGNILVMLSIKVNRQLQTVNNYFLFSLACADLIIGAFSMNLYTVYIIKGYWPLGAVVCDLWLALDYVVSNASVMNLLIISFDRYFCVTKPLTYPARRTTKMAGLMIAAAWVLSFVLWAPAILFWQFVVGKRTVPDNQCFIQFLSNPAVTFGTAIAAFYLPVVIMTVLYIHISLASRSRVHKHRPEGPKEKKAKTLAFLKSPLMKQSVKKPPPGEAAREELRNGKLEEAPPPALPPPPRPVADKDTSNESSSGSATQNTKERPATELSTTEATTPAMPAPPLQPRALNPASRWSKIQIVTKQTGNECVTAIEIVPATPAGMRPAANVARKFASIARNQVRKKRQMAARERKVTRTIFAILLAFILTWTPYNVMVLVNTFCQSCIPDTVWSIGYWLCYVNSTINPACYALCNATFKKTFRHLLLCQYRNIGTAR

[6] = target: T3, CHRM4; assay: Radioligand binding assay, CHRM4; set-up: expressed in transfected cells; host or cells: CHO cells (membranes); conditions: [3H]4-DAMP (0.2 nM), CHO cell membranes, 60 minutes at room temperature; read-out: Ki M4

Ki [1]: 210 nM
Ki [2]: 2500 nM
Ki [6]: 5.1 nM
Compound: CCOC(=O)c1c(C)[nH]c2ccc3c(c12)CN1CCc2cc(OC)ccc2C1O3 (centres unmarked) [PD102807, reference compound]
expansion of BFU-E cells in cell culture ([3]; 3 nM PD102807): increase the expansion of BFU-E cells
BFU-E expansion, cell numbers at day 9 ([3]; indicated concentrations, vs untreated): induce BFU-E expansion
HCT, PHZ-induced anemia [4]: significantly improved
RBC, PHZ-induced anemia [4]: significantly improved
selectivity for CHRM4 over other muscarinic acetylcholine receptor family members [5]: selectively inhibits CHRM4
